Substitutions are numbered along the chain they refer to.
Legend:
RsTSPO [1] = target: T1, RsTSPO (Cereibacter sphaeroides, UniProt Q9RFC8, A136L/A138F/T137A); test: fluorescence quenching; format: binding
T1 sequence (Q9RFC8 1-158 A136L/T137A/A138F): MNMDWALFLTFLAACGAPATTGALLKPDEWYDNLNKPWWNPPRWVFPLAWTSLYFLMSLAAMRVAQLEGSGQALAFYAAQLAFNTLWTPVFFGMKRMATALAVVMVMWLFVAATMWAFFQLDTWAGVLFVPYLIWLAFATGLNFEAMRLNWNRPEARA

RsTSPO [2] = target: T2, RsTSPO (Cereibacter sphaeroides, UniProt Q9RFC8); test: fluorescence quenching; format: binding; settings: affinity value, symbol not given
T2 sequence (Q9RFC8 1-158): T1 sequence (Q9RFC8 1-158 A136L/T137A/A138F) with L136A, A137T, F138A

RsTSPO [3] = target: T2, RsTSPO; test: binding to purified protein
RsTSPO [4] = target: T1, RsTSPO; test: binding to purified protein
RsTSPO [5] = target: T2, RsTSPO; test: binding to purified protein; settings: affinity value, symbol not given
RsTSPO [6] = target: T1, RsTSPO; test: binding to purified protein; remark: listed apart in the source

CCC(C)N(C)C(=O)c1cc2ccccc2c(-c2ccccc2Cl)n1 (stereo not drawn) [PK11195] showed a Kd (RsTSPO [1]) of 15 ± 4 µM and a Kd (RsTSPO [2]) of 10 ± 1 µM.

Work on CC(C)CCC[C@@H](C)[C@H]1CC[C@H]2[C@@H]3CC=C4C[C@@H](O)CC[C@]4(C)[C@H]3CC[C@]12C [cholesterol] yielded a Kd (RsTSPO [3]) of about 80 µM and a Kd (RsTSPO [4]) of about 0.02 µM.

For C=CC1=C(C)c2cc3[nH]c(cc4nc(cc5[nH]c(cc1n2)c(C)c5CCC(=O)O)C(CCC(=O)O)=C4C)c(C)c3C=C [protoporphyrin IX], the Kd (RsTSPO [5]) was 0.31 ± 0.01 µM and the Kd (RsTSPO [6]) was 1.1 ± 0.1 µM.
